Assays:
MC38 tumor = assay: Adoptive transfer of lymph node cells into NRG mice bearing MC38 and B16F10 tumors: MC38 flank; format: in vivo; settings: donor mice treated 10 days; tumor-draining lymph node cells; MC38 flank (FIG. 11B)
Procedure: (§1) FIG. 11 depicts the effect of 5-HTR antagonists on the antigen-specific CTL response MC38 tumor model in mice: (A) Representative experimental plan of the adoptive transfer experiment where NRG mice. In brief, NRG mice were inoculated with MC38 on one flank and B16F10 cells on the other. These mice received total lymph node cells from naïve C57BL/6J mice or MC38 tumor-bearing control or RS-127445 treated mice. (B) Tumor volume data from the above-described experiment was measured and plotted (C) Immunocytochemistry data showing expression of H2-Kb-[…]^+ (red) on MC38 cells transfected with pCL-neo-OVA plasmid on the right side and MC38 cells without transfection. DAPI is used as a counterstain. (D-E) C7BL/6J mice were inoculated with an MC38-ova cell line and treated with RS-127445 or left untreated. After 10 days of such treatment, Total lymph node cells were harvested tagged with CFSE, and cultured in the presence of ovalbumin protein (50 μg/ml) for 5 days. After 5 days cells were checked for CFSE expression by flow cytometry to check proliferation. Here is the data (D) showing the CFSE in CD8^+ cells. The statistical data of the total percentage of CFSE^− CD8 T cells corresponding with the percentage of proliferated CD8 T cells were plotted. […]

B16F10 melanoma tumor = assay: Adoptive transfer of lymph node cells into NRG mice bearing MC38 and B16F10 tumors: B16F10 flank; format: in vivo; settings: same recipient mice, other flank (FIG. 11B)
Procedure: as §1

CC(C)c1cc(-c2ccc(F)c3ccccc23)nc(N)n1 [RS-127445]
MC38 tumor growth after transfer of antagonist primed total immune cells (MC38 tumor): able to control MC38 tumor growth | B16F10 tumor growth after transfer of antagonist primed total immune cells (B16F10 melanoma tumor): failed to control B16F10 tumor growth

From patent publication US20240408071A1, “NOVEL COMBINATION OF SEROTONIN RECEPTOR (5-HTR2B) ANTAGONIST AND AN IMMUNOMODULATOR AND CHEMOTHERAPEUTIC DRUGS FOR INHIBITION OF CANCER” (NATIONAL CENTRE FOR CELL SCIENCE, priority 2021, published 2024)
